From US8232274B2, “Pyridazinone derivatives useful as glucan synthase inhibitors” (Albany Molecular Research, Inc., priority 2007, dated 2012)

Columns and labels:
glucan synthase [1] = target: T1, glucan synthase (Candida albicans, UniProt O13428); assay: β(1,3) glucan synthase assay, C. albicans BWP17 membrane preparation (IC50); format: biochemical; conditions: in vitro fungal enzyme activity assay, read-out: IC50 (μg/mL) Candida albicans (converted)
T1 construct: glucan synthase sources (2 μL permeabilized PM503 cells, or 3 μL membrane preparations from either PM503, BWP17, or ND158); endogenous in cells; host or cells: C. albicans strain BWP17, 100,000 g membrane fraction
Experimental: (§1) β(1,3) Glucan Synthase Assay:
(§2) 2. Preparation of Membrane Fraction of Yeast Cells
(§3) The protocol was modified from Douglas et al. (Journal of Bacteriology, 176, 5686-5696, 1994). For the preparation of S. cerevisiae and C. albicans membrane fractions, 1 liter of YPD supplemented with 0.02 mg/mL adenine and 0.08 mg/mL uracil was inoculated with 10 mL starter culture of PM503 (OD600=4) or the C. albicans strain BWP17 (OD600=12) in the same medium and grown at 30° C. until OD600 reached about 1. A. fumigatus (stain ND158) membranes were prepared by first preparing a spore suspension from agar slants by adding 6 mL of sterile saline, 0.1% Tween-20 solution to each slant, and resuspending by pipetting and scraping. The spore suspensions were used to inoculate two 200 mL flasks containing Sabouraud dextrose broth media. Cultures were incubated at 37° C., 250 rpm for ˜8 hrs. All cells, S. cerevisiae, C. albicans or A. fumigatus were harvested by centrifugation at 5,300 g at 4° C. for 40 minutes. After washing with 100 mL of breakage buffer (0.1 M KPi, pH 7.0, 1 mM EDTA, 1 mM DTT), the cell pellet was resuspended in 50 ml ice-cold breakage buffer. The mixture was transferred to a bead-beater chamber packed in ice (BioSpec Products, Bartlesville, Okla.). To each 50 mL sample was added 50 g of acid-washed glass beads ([…], Sigma). Cells were disrupted using 12×20 second pulses with 2 min-cooling intervals. Cell debris was removed by centrifugation at 3,000 g for 20 minutes at 4° C., and the supernatant was collected and centrifuged at 100,000 g for 1 hour at 4° C. to pellet the membrane fraction. The pellet was resuspended in 5 mL of ice-cold breakage buffer containing 25% glycerol, homogenized with a Dounce tissue homogenizer and stored at −80° C. in small aliquots.
(§4) 3. Glucan Synthase Assay and Compound Screening
The assay was performed according to Mo et at (Journal of Biological Chemistry, 269, 31267-31274, 1994) and Taft et al. (The Journal of Antibiotics, 47, 1001-1009, 1994), in a 96-well Optiplate (PerkinElmer). To each well was added 3 μL 10× compound stock (in 100% DMSO), or 3 μL of 30 μg/mL caspofungin in 100% DMSO (as positive control), or 3 μL 100% DMSO (as negative control), followed by the addition of appropriate amount of glucan synthase sources (2 μL permeabilized PM503 cells, or 3 μL membrane preparations from either PM503, BWP17, or ND158). The reaction was initiated by adding 25 μL reaction buffer (0.6 mM UDP-Glucose 0.6 nCi [U-^14C]DUP-Glucose (327 mCi/mmol, Amersham Bioscience), 20 μM GTP-γ-S, 25 mM NaF, 7.5 mg/mL BSA, 8% glycerol in 75 mM Tris-HCl, pH 7.5). The plate was incubated on a shaker for 1.5 hour at room temperature before being quenched with 250 μL 1% TCA (Trichloroacetic Acid). The quenched reaction was mixed by pipetting, and immediately transferred to a 96-well filter plate (Glass fiber B on 0.65 μm hydrophilic durapore membrane, Millipore) pre-wetted with wash buffer (5% TCA, 60 mM NaPPi). The glucan product was retained on the filter membrane by applying vacuum to the plate using a MultiScreen Resist Vacuum Manifold (Millipore). The filter plate was further washed 4 times with 200 μL wash buffer. The plate was dried at 50° C. for 30 minutes. 100 μL of Microscint-0 (PerkinElmer) was added to each well, and plate was counted in a TopCount NXT plate reader (PerkinElmer).
Dose-response curves were plotted from inhibition data generated. IC50 was determined by fitting the CPM versus the Concentration of the test compound plot with the following equation (4-parameter logistic model, ID Business Solutions XLfit 4.2).

glucan synthase [2] = target: T2, glucan synthase (Saccharomyces cerevisiae, UniProt P38631); assay: β(1,3) glucan synthase assay, S. cerevisiae PM503 permeabilized cells or membrane preparation (IC50); format: biochemical
T2 construct: glucan synthase sources (2 μL permeabilized PM503 cells, or 3 μL membrane preparations from either PM503, BWP17, or ND158); endogenous in cells; host or cells: S. cerevisiae strain PM503, permeabilized cells or 100,000 g membrane fraction
Experimental: as §1
1. Preparation of Permeabilized Saccharomyces cerevisiae Cells.
Permeabilization of yeast cells was performed according to Crotti et al. (Analytical Biochemistry, 292, 8-16, 2001) with some modifications. A 10 ml-starter culture of the S. cerevisiae strain in YPD medium (1% yeast extract, 2% bacto-peptone, 2% dextrose) with OD600=3-4 was used to inoculate 1 liter of YPD. The culture was grown at 30° C. until […]. Cells were collected by centrifugation (5,300 g for 15 min at 4° C.) and resuspended in buffer (40 mM EDTA, 100 mM β-mercaptoethanol) at 1 g of cell pellet/3.5 ml buffer. The cell suspension was shaken for 30 min at 30° C., followed by centrifugation at 12,000 g for 10 min at 4° C. The cell pellet was washed with 5 ml 0.8 M sorbitol and resuspended in 6.8 ml of 2.9 mM citric acid, 11.3 mM dibasic sodium phosphate, 1 mM EDTA, 0.8 M sorbitol, with constant shaking at 30)C for 30 min. After centrifugation at 12,000 g for […] at 4° C., the pellet was resuspended in 31.3 ml 50 mM Tris-HCl, pH 7.0, and incubated on ice for 5 min. The mixture was then centrifuged at 12,000 g for 10 min at 4 AC, and the pellet was resuspended in 1 ml of 50 mM Tris-HCl and 33% glycerol, pH 7.5. The permeabilized cell preparation was stored at […] in aliquots.
as §2, §3, §4
The assay was performed according to Mo et at (Journal of Biological Chemistry, 269, 31267-31274, 1994) and Taft et al. (The Journal of Antibiotics, 47, 1001-1009, 1994), in a 96-well Optiplate (PerkinElmer). To each well was added 3 μL 10× compound stock (in 100% DMSO), or 3 μL of 30 μg/mL caspofungin in 100% DMSO (as positive control), or 3 μL 100% DMSO (as negative control), followed by the addition of appropriate amount of glucan synthase sources (2 μL permeabilized PM503 cells, or 3 μL membrane preparations from either PM503, BWP17, or ND158). The reaction was initiated by adding 25 μL reaction buffer (0.6 mM UDP-Glucose 0.6 nCi [U-^14C]DUP-Glucose (327 mCi/mmol, Amersham Bioscience), 20 μM GTP-γ-S, 25 mM NaF, 7.5 mg/mL BSA, 8% glycerol in 75 mM Tris-HCl, pH 7.5). […]

T2 sequence (P06780 1-206): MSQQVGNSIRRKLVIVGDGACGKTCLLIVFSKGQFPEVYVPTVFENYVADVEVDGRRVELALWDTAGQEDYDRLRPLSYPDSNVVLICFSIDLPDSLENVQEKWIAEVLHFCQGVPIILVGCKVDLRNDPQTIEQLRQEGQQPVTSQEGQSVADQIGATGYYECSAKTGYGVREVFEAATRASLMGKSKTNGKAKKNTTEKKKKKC
T2 sequence (P38631 whole entry): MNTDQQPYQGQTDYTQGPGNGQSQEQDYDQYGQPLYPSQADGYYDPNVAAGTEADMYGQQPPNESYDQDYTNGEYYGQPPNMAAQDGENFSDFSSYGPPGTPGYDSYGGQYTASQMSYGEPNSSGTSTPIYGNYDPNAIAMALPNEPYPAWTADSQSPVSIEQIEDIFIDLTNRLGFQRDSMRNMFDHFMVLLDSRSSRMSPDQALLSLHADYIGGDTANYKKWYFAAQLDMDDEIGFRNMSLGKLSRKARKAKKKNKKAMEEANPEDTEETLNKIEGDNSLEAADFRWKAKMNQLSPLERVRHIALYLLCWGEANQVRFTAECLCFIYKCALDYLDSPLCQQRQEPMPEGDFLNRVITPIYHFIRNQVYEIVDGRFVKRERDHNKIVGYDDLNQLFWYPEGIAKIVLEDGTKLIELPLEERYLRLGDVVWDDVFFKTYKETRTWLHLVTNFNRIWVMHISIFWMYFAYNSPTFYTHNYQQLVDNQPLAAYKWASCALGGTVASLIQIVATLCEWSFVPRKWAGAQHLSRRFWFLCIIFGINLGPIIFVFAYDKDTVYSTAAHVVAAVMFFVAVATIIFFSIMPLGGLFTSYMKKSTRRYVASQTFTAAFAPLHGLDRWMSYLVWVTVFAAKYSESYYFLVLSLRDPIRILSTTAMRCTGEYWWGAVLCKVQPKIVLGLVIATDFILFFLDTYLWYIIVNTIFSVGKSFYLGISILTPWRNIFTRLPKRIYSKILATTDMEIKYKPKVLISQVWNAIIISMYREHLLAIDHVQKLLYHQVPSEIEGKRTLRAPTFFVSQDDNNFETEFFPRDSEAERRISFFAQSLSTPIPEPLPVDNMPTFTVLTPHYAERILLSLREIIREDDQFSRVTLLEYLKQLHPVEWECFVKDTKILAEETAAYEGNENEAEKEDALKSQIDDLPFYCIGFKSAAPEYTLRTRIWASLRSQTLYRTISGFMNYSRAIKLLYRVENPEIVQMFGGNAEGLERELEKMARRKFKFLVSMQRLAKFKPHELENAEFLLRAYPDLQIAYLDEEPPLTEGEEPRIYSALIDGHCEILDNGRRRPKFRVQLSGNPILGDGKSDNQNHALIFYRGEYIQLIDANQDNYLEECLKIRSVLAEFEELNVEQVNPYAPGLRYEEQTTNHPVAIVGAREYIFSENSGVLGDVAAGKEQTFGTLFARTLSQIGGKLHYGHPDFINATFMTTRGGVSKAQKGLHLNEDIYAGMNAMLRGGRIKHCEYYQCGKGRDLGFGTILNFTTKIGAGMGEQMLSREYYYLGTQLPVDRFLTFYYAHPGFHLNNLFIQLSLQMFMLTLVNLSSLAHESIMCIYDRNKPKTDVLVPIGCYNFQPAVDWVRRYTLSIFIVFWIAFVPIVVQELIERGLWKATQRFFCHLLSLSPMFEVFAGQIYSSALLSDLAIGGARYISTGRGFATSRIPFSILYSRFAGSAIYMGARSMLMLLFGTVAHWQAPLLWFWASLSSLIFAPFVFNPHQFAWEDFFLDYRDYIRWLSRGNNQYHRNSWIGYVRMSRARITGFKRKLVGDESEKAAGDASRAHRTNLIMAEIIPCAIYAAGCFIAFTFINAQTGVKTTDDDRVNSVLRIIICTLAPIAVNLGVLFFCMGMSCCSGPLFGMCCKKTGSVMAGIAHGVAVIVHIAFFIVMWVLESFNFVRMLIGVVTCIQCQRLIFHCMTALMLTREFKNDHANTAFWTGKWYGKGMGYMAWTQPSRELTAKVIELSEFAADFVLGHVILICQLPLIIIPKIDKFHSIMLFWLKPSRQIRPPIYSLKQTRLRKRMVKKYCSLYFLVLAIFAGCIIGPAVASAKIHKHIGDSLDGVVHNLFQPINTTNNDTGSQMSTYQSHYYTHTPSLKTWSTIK
T1 sequence (O13428 1-1897): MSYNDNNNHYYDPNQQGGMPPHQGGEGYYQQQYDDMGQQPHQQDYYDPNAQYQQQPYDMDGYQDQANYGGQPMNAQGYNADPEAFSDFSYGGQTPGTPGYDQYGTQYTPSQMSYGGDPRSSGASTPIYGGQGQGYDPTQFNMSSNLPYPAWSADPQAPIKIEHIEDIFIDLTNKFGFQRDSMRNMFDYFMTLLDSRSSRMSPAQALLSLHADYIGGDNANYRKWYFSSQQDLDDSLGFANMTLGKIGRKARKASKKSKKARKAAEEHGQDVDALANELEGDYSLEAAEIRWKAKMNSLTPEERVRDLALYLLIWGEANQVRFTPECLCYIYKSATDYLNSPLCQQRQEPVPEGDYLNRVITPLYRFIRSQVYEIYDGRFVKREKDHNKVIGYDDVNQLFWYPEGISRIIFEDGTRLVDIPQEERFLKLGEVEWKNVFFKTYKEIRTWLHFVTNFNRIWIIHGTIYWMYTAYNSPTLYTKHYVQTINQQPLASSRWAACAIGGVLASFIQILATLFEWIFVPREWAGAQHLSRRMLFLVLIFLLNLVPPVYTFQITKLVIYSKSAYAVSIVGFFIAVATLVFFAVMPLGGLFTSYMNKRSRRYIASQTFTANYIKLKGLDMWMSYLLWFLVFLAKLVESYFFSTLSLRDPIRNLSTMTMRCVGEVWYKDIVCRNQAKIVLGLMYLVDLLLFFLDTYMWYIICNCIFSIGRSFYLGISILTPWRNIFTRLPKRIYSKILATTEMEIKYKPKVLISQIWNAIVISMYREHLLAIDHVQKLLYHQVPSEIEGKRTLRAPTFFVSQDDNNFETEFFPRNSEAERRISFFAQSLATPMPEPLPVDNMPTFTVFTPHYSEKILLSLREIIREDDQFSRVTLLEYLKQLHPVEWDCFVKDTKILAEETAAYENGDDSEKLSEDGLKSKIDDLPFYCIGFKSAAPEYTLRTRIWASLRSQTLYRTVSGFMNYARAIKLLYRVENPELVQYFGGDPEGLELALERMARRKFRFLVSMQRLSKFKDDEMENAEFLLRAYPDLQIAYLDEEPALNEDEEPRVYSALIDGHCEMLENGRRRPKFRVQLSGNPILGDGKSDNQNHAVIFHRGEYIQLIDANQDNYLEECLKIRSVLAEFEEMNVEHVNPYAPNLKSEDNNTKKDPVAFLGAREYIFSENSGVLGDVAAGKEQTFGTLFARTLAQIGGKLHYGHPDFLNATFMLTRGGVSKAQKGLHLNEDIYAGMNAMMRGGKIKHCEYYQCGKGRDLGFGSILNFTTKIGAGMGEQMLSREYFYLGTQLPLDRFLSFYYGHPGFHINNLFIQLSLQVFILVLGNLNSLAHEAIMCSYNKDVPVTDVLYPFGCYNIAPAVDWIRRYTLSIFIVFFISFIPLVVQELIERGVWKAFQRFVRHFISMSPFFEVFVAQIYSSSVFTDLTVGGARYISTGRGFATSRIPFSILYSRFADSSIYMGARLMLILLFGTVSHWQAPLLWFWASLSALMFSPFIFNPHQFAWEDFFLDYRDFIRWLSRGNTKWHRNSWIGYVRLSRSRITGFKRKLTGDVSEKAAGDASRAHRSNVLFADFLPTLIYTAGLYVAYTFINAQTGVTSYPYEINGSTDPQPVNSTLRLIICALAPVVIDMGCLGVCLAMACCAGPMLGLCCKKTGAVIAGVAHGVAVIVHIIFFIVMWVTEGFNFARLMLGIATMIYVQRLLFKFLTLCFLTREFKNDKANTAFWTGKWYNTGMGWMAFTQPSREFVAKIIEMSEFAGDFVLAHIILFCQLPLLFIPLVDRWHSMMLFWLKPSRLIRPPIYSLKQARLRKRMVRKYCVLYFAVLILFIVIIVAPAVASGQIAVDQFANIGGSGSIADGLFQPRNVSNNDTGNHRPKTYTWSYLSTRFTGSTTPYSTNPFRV
T1 sequence (O42825 1-195 partner limits assumed): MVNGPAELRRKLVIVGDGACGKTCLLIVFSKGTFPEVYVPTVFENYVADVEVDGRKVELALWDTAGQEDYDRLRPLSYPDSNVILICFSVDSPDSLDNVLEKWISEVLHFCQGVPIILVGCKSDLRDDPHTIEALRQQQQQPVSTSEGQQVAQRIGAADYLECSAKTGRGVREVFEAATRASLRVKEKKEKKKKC

CC(C)S(=O)(=O)N1CCN(c2cnn(-c3cccc(F)c3)c(=O)c2OC2CCCCC2)CC1 [402Z]
IC50 (glucan synthase [1]): 794 nM | IC50 (glucan synthase [2]): 153 nM

Cc1ccc(CNS(=O)(=O)N2CCN(c3cnn(-c4cc(F)cc(F)c4)c(=O)c3OC3CCC(F)C3)CC2)cc1N (centres unmarked) [1715Z]
IC50 (glucan synthase [1]): 523 nM | IC50 (glucan synthase [2]): 169 nM

O=c1c(OC2CCCC2)c(N2CCN(S(=O)(=O)Cc3ccccc3)CC2)cnn1-c1cccc(F)c1 [1402Z]
IC50 (glucan synthase [1]): 117 nM | IC50 (glucan synthase [2]): 39 nM

O=c1c(OC2CCCC2)c(N2CCN(S(=O)(=O)NCc3ccccc3)CC2)cnn1-c1cc(F)cc(F)c1 [1629Z]
IC50 (glucan synthase [1]): 91.6 nM | IC50 (glucan synthase [2]): 36.7 nM

O=c1c(OCC2CC2(F)F)c(N2CCN(S(=O)(=O)Cc3ccccc3)CC2)cnn1-c1cc(F)cc(F)c1 (centres unmarked) [1529Z-180]
IC50 (glucan synthase [1]): 5.43 nM | IC50 (glucan synthase [2]): 1.81 nM

CC1(COc2c(N3CCN(S(=O)(=O)NCc4ccc(N)c(F)c4)CC3)cnn(-c3cccc(Cl)c3)c2=O)CC1 [1712Z]
IC50 (glucan synthase [1]): 104 nM | IC50 (glucan synthase [2]): 139 nM

Nc1ccc(CS(=O)(=O)N2CCN(c3cnn(-c4cc(F)cc(F)c4)c(=O)c3OC3CCC(F)C3)CC2)cc1 (centres unmarked) [1529Z-6]
IC50 (glucan synthase [1]): 106 nM | IC50 (glucan synthase [2]): 35.5 nM

CCOCCOc1c(N2CCN(c3ncc([N+](=O)[O-])s3)CC2)cnn(-c2cccc(C)c2)c1=O [240Z]
IC50 (glucan synthase [1]): 201000 nM | IC50 (glucan synthase [2]): 201000 nM

CC1(COc2c(N3CCN(S(=O)(=O)Cc4ccc5ocnc5c4)CC3)cnn(-c3cc(F)cc(F)c3)c2=O)CC1 [270*]
IC50 (glucan synthase [1]): 35 nM | IC50 (glucan synthase [2]): 52.5 nM

O=c1c(N2CCOCC2)c(N2CCN(S(=O)(=O)Cc3ccccc3)CC2)cnn1Cc1c(F)cccc1Cl [30Z]
IC50 (glucan synthase [1]): 16000 nM | IC50 (glucan synthase [2]): 712 nM

O=c1c(OC2CCCC2)c(N2CCN(S(=O)(=O)Cc3cc(Cl)cc(Cl)c3)CC2)cnn1-c1cccc(Cl)c1 [553Z]
IC50 (glucan synthase [1]): 351 nM | IC50 (glucan synthase [2]): 184 nM

CC1(COc2c(N3CCN(S(=O)(=O)Cc4cccc(N)c4)CC3)cnn(-c3cc(F)cc(F)c3)c2=O)CC1 [1529Z-40]
IC50 (glucan synthase [1]): 55 nM | IC50 (glucan synthase [2]): 55 nM

Cc1cc(CS(=O)(=O)N2CCN(c3cnn(-c4cccc(Cl)c4)c(=O)c3OCC3(C)CC3)CC2)ccc1N [1869Z]
IC50 (glucan synthase [1]): 143 nM | IC50 (glucan synthase [2]): 53.8 nM

COc1cccc(CS(=O)(=O)N2CCN(c3cnn(-c4cccc(Cl)c4)c(=O)c3OCC3(C)CC3)CC2)c1N [Compound 1574ZI]
IC50 (glucan synthase [1]): 87.1 nM | IC50 (glucan synthase [2]): 87.1 nM

Cc1nc2ccc(CS(=O)(=O)N3CCN(c4cnn(-c5cc(F)cc(F)c5)c(=O)c4OCC4(C)CC4)CC3)cc2o1 [1898Z]
IC50 (glucan synthase [1]): 102 nM | IC50 (glucan synthase [2]): 85.4 nM

Nc1ccc(CS(=O)(=O)N2CCN(c3cnn(-c4cccc(Cl)c4)c(=O)c3OCC3(CF)CC3)CC2)cc1 [809Z]
IC50 (glucan synthase [1]): 196 nM | IC50 (glucan synthase [2]): 71.2 nM

O=c1c(N2CCCCC2)c(N2CCN(S(=O)(=O)Cc3ccccc3)CC2)cnn1-c1ccc(F)cc1 [61Z]
IC50 (glucan synthase [1]): 2540 nM | IC50 (glucan synthase [2]): 625 nM

Nc1ccc(CS(=O)(=O)N2CCN(c3cnn(-c4cccc(Cl)c4)c(=O)c3OCC3CCC3)CC2)cc1 [1529Z-73]
IC50 (glucan synthase [1]): 349 nM | IC50 (glucan synthase [2]): 165 nM

CC(C)S(=O)(=O)N1CCN(c2cnn(-c3cc(F)cc(F)c3)c(=O)c2Sc2ccccc2)CC1 [19Z]
IC50 (glucan synthase [1]): 3360 nM | IC50 (glucan synthase [2]): 160 nM

O=c1c(OCC2(CF)CC2)c(N2CCN(S(=O)(=O)Cc3ccccc3)CC2)cnn1-c1cccc(Cl)c1 [1122Z]
IC50 (glucan synthase [1]): 54.8 nM | IC50 (glucan synthase [2]): 54.8 nM

CC1(COc2c(N3CCN(S(=O)(=O)Cc4ccc5ncoc5c4)CC3)cnn(-c3cc(F)cc(F)c3)c2=O)CC1 [1891Z]
IC50 (glucan synthase [1]): 122 nM | IC50 (glucan synthase [2]): 87.5 nM

CCOCCOc1c(N2CCN(Cc3c(Cl)cccc3Cl)CC2)cnn(-c2cc(Cl)cc(Cl)c2)c1=O [214Z]
IC50 (glucan synthase [1]): 489 nM | IC50 (glucan synthase [2]): 1310 nM

N[C@@H](Cc1ccc(Cl)cc1)C(=O)N1CCN(c2cnn(-c3ccccc3)c(=O)c2Sc2ccc(F)cc2)CC1 [1Z]
IC50 (glucan synthase [1]): 17700 nM

Nc1ccccc1CS(=O)(=O)N1CCN(c2cnn(-c3cc(F)cc(F)c3)c(=O)c2OC2CCCC2)CC1 [738Z]
IC50 (glucan synthase [1]): 128 nM | IC50 (glucan synthase [2]): 73.3 nM

O=c1c(-c2ccc(C3CCCCC3)cc2)c(N2CCN(S(=O)(=O)Cc3ccccc3)CC2)cnn1-c1cc(F)cc(F)c1 [96Z]
IC50 (glucan synthase [1]): 1550 nM | IC50 (glucan synthase [2]): 364 nM

COc1ccc(CNS(=O)(=O)N2CCN(c3cnn(-c4cc(F)cc(F)c4)c(=O)c3OCC3(C)CC3)CC2)cc1 [1633Z]
IC50 (glucan synthase [1]): 86.9 nM | IC50 (glucan synthase [2]): 139 nM

O=c1c(OC2CCCC2)c(N2CCN(Cc3c(Cl)cccc3Cl)CC2)cnn1-c1cccc(Cl)c1 [208Z]
IC50 (glucan synthase [1]): 2620 nM | IC50 (glucan synthase [2]): 206 nM

Cc1cc(CS(=O)(=O)N2CCN(c3cnn(-c4cc(F)cc(F)c4)c(=O)c3OCC3(C)CC3)CC2)ccc1N [1870Z]
IC50 (glucan synthase [1]): 125 nM | IC50 (glucan synthase [2]): 53.6 nM

CC(C)(C)COc1c(N2CCN(S(=O)(=O)Cc3ccc(N)cc3)CC2)cnn(-c2cc(F)cc(F)c2)c1=O [1529Z-174]
IC50 (glucan synthase [1]): 183 nM | IC50 (glucan synthase [2]): 128 nM

CC1(COc2c(N3CCN(S(=O)(=O)Cc4ccccc4)CC3)cnn(-c3cc(F)cc(F)c3)c2=O)CC1 [1529Z-191]
IC50 (glucan synthase [1]): 37.7 nM | IC50 (glucan synthase [2]): 207 nM

CC1CCC(Oc2c(N3CCN(S(=O)(=O)CCCF)CC3)cnn(-c3cccc(Cl)c3)c2=O)C1 (centres unmarked) [1761Z]
IC50 (glucan synthase [1]): 312 nM | IC50 (glucan synthase [2]): 136 nM

CC1(COc2c(N3CCN(S(=O)(=O)Cc4cccc(N)c4)CC3)cnn(-c3cccc(Cl)c3)c2=O)CC1 [755Z]
IC50 (glucan synthase [1]): 73.5 nM | IC50 (glucan synthase [2]): 91.9 nM

CC1CC1COc1c(N2CCN(S(=O)(=O)Cc3ccccc3)CC2)cnn(-c2cc(F)cc(F)c2)c1=O (centres unmarked) [1529Z-182]
IC50 (glucan synthase [1]): 18.8 nM | IC50 (glucan synthase [2]): 1.88 nM
